Measurements published in patent US6291677A, “Compounds having activity as inhibitors of cytochrome P450RAI” (Allergan Sales, Inc., priority 2000, dated 2001).

Columns and labels:
skin = conditions: humans; topical ATRA, oral 13-cis RA and etretinate; cited from earlier work
P450RAI-1 = target: T1, P450RAI-1 (Homo sapiens, UniProt O43174); assay: cell-based; conditions: intact HeLa, P450RAI-1 stably transfected, [3H]-RA, 3 hours at 37° C; read-out: P450RAI INHIBITION DATA INTACT HELA IC50
T1 sequence (O43174 1-497): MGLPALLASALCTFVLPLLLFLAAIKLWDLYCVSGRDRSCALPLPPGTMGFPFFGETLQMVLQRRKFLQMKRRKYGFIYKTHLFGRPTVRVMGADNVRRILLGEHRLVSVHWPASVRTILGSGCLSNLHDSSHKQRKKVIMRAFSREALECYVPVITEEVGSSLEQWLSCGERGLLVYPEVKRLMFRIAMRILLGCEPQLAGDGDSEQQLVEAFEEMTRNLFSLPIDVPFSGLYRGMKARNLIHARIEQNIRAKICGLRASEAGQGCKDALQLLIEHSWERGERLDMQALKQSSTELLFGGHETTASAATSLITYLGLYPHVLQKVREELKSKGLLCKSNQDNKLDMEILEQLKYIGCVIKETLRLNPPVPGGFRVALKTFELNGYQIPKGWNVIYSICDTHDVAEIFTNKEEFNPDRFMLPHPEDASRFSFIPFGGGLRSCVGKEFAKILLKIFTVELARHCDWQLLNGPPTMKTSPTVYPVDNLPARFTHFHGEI
Method: FIG. 1 is a schematic representation of the P450RAI cell based assay utilized to evaluate the ability of the compounds of the invention to inhibit the Cytochrome P450RAI enzyme.
P450RAI-1 Cell-Based Inhibitor Assay:
P450RAI-1 stably transfected HeLa cells are maintained in […] tissue culture dishes in Modified Eagle's Medium (MEM) containing 10% Fetal Bovine Serum (FBS) and 100 μg/ml hygromycin. Exponentially growing cells are harvested by incubating in trypsin. Cells are then washed with 1× Phosphate Buffered Saline (PBS) and plated in a 48-well plate at 5×10^5 cells in 0.2 ml MEM medium containing 10% FBS and 0.05 μCi [^3 H]-RA in the presence or absence of increasing concentrations of the test compounds. The compounds are diluted in 100% DMSO and then added in triplicate wells at either 10, 1 or 0.1 μM final concentration. As a positive control for RA metabolism inhibition, cells are also incubated with ketoconazole at 100, 10 and 1 μM. Cell are incubated for 3 hours at 37° C. […] The water soluble radioactivity is quantified using a β-scintillationcounter. IC50 values represent the concentration of inhibitor required to inhibit all-trans-RA metabolism by 50 percent and are derived manually from log-transformed data.

psoriasis = conditions: treatment with liarozole; cited from earlier work
RARα = target: T2, RARα (Homo sapiens, UniProt P10276); assay: ligand binding assay, RARα; conditions: read-out: Kd RAR α
T2 sequence (P10276 1-462): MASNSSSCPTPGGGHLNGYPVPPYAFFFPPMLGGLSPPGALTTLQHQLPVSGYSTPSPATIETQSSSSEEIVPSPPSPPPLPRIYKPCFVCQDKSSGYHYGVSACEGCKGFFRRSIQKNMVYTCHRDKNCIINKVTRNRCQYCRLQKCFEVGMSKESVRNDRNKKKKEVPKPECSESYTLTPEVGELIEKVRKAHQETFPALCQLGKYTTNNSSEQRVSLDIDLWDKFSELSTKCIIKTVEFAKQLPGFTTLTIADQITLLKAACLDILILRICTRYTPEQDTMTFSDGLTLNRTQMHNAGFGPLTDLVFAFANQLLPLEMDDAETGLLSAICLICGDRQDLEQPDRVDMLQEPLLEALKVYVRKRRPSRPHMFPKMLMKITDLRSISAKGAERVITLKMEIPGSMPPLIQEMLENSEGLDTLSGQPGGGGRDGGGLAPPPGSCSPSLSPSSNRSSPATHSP
Description: Assays described below measure the ability of a compound to bind to, and/or activate various retinoid receptor subtypes. […] In the below described assays the ability of the compounds to bind to RARα, RARβ, RARγ,RXRα, RXRβ and RXRγ receptors, and the ability or inability of the compounds to activate transcription of a reporter gene through these receptor subtypes can be tested.

RARβ = assay: chimeric receptor transactivation assay, RARβ; assay type: cell-based; conditions: unit assumed
Description: Assays described below measure the ability of a compound to bind to, and/or activate various retinoid receptor subtypes. When in these assays a compound binds to a given receptor subtype and activates the transcription of a reporter gene through that subtype, then the compound is considered an agonist of that receptor subtype. […] In the below described assays the ability of the compounds to bind to RARα, RARβ, RARγ,RXRα, RXRβ and RXRγ receptors, and the ability or inability of the compounds to activate transcription of a reporter gene through these receptor subtypes can be tested.
The results obtained in this assay are expressed in EC50 numbers, as they are also in the chimeric receptor transactivation assay. The results of ligand binding assay are expressed in Kd numbers.

skin of hairless mice = assay: topical skin irritation test in hairless mice; assay type: in vivo, female hairless mice (Crl:SKH1-hrBR); conditions: once daily days 1 through 5, mean±SD
Description: Mice were housed individually throughout the dosing period.
Doses are disclosed as nmol/25 g.
The grading scale used is as follows:
Values can range from 0-9.
Values can range from 0-8.

For CC1=C(/C=C/C(C)=C/C=C/C(C)=C/C(=O)O)C(C)(C)CCC1 [all-trans-retinoic acid], the skin irritation (skin) is listed as “substantial skin irritation in humans”.
In the case of CCOC(=O)/C=C(C)/C=C/C=C(C)/C=C/c1c(C)cc(OC)c(C)c1C [etretinate], the skin irritation (skin) is given as “substantial skin irritation in humans”.
With Cc1cc(C#Cc2ccc(CC(=O)O)cc2)ccc1Cn1ccnc1 [Compound 121, [4-(4-Imidazol-1-yl-methyl-3-methyl-phenylethynyl)-phenyl]-acetic acid] the IC50 (P450RAI-1) was 0.18 µM.
For Clc1cccc(C(c2ccc3[nH]cnc3c2)n2ccnc2)c1 (stereo not shown) [liarozole], the “retinoid-like effects, amelioration of psoriasis” value (psoriasis) is given as “effects similar to treatment by retinoids, for example amelioration of psoriasis”.
For CN(C1CC1)C1CCC(C)(C)c2cc(C#Cc3ccc(CC(=O)O)cc3)ccc21 (stereo not shown) [Compound 8, 4-[(5-(Cyclopropyl-methyl-amino)-8,8-dimethyl-5,6,7,8-tetrahydro-naphthalene-2-yl-ethynyl)-phenyl]-acetic acid], the Kd (RARα) was 10 µM, the (EFFICACY) RAR β (RARβ) was 96% and the “Cutaneous Toxicity Score (Blackjack Score)” value (shortened to “Cutaneous Toxicity Score”) (skin of hairless mice; 100 nmole) was 5 ± 2. For the same compound, the “Cutaneous Toxicity Score” value (skin of hairless mice; 300 nmole) was 8 ± 3 and the “Cutaneous Toxicity Score” value (skin of hairless mice; 1000 nmole) was 12 ± 1.
For CC1=C(/C=C/C(C)=C/C=C/C(C)=C\C(=O)O)C(C)(C)CCC1 [13-cis RA], the skin irritation (skin) is listed as “substantial skin irritation in humans”.
With CC1(C)CC(C)(C)c2cc(C#Cc3ccc(CC(=O)O)c(F)c3)cc(C3CC3)c2O1 [Compound 38, [4-(8-Cyclopropyl-2,2,4,4-tetramethyl-chroman-6-yl-ethynyl)-2-fluorophenyl]acetic acid] the Kd (RARα) was 10 µM, the “Cutaneous Toxicity Score” value (skin of hairless mice; 100 nmole) was 1 ± 1 and the “Cutaneous Toxicity Score” value (skin of hairless mice; 1000 nmole) was 10 ± 1.
